Data published in PMC6271122, “Effects of Fructus Psoraleae Extract on the Intestinal Absorption Kinetics of Geniposide and Geniposidic Acid in Rat” (Molecules, 2014).
Like-named read-outs stand apart in the source and are kept apart here.

Tests used:
[1] = In situ intestinal perfusion of rat duodenum (UPLC of perfusate); assay type: in vivo; settings: for Cumulative Absorption Rate (%) 1 h (mean ± SD) / Cumulative Absorption Rate (%) 3 h (mean ± SD): rat duodenum, n = 6
Description: All animal experimental procedures were in compliance with the National Institutes of Health Guide for Care and Use of Laboratory Animals. The in situ intestinal perfusion experiment was performed by using male Sprague-Dawley rats (240 ± 20 g) which obtained from Beijing Vital River Laboratory Animal Technology Co., Ltd. (SCXK 2012-0001, Beijing, China). Animals were fasted overnight (12 h) with free access to water before being allocated to different experimental groups at random. After the abdominal cavity was opened, an intestinal loop (length, 10 cm) was made by cannulation with silicone tube (i.d., 3 mm) at the duodenum which was selected 1 cm away from pylorus. The intestinal contents were removed by infusion of normal saline solution. The 25 mL perfusion solution was precisely measured and stored in the measuring cylinder. At the start of the experiment, the perfusion solutions perfused through the intestinal segment at a flow rate of 5 mL/min for 10 min by using a peristaltic pump (Petro Gas Ausrüstungen, Berlin, Germany). On reaching a steady state, changed the flow rate to 2.5 mL/min, and the intestinal perfusion samples (150 µL × 3) were collected at 30 min intervals for the duration of 3 h (0, 0.5, 1, 1.5, 2, 2.5, 3 h) with a pipette and put into shell tube. After each collection, the volumes (V1) of the perfusion solutions were recorded precisely and 450 µL blank K-R solution was added into the perfusion solution to keep the volume of the perfusion solution constant. After 3 h, the intestinal perfusion solution in peristaltic pump and the duodenum was exhausted, the volume of which was recorded as V2. All the samples were assayed by UPLC after preparation. Finally, the curves of time and the residual quantities (lnx) of GP and GPA in intestinal solution during the absorption in the duodenum for 3 h were obtained (Figure 2).The residual quantities of GP and GPA in the perfusion solution were calculated using the following equation: Xn = CnVn + 0.45 [drawing 1] , Xn is the residual quantities of GP or GPA in intestinal solution, Ci and Cn is the concentration of the GP or GPA, Vn is the volume of the intestinal perfusion solution (Vn = V1 + V2). Cumulative absorption rates were compared for 1 h and 3 h between the single and compatibility groups. The equation was as follows: 1 h/3 h cumulative absorption rate [drawing 2] .
Samples were prepared using a protein precipitation method at a volume ratio of 1:1 (v/v). The perfusion sample (150 µL) was mixed with CH3OH (150 µL), and then vortexed for 1 min. After 10 min for the precipitation, pure water (160 µL) was added to 40 µL of the above mixture. Then the sample was vortexed for 1 min and centr ifuged at 14,000 rpm for 10 min. The supernatant was directly used for UPLC analysis.
After sample preparation, 3 µL of the supernatant was injected into the UPLC system, and separated on a Waters BEH C18 column (2.1 × 50 mm, 1.7 µm). The column temperature was set at 25 °C. The mobile phase was consisted of water with 0.2% acetic acid (A) and acetonitrile (B) at a flow rate of 0.35 mL/min. The mobile phase operated in the following gradient for GP: 0–3 min: 15%–50% B, 3–3.5 min: 50%–90% B, 3.5–4 min: 90%–50% B, 4–5 min: 50%–15% B; GPA: 0–1 min: 5%–10% B, 1–2 min: 10%–20% B, 2–3 min: 20%–50% B, 3–4 min: 50%–10% B, 4–5 min: 10%–5% B. The detection wavelength was 254 nm.

[2] = Stability in blank intestinal perfusion solution; assay type: physicochemical; settings: 3 h, 50 mg/L; for Stability in blank intestinal perfusion solution: 37 °C; for Stability, RSD (%): Blank intestinal perfusion solution, 37 °C water bath, concentrations at 0, 0.25, 0.5, 1, 2 and 3 h compared
Description: A total of 50 mg/L GP and GPA perfusion solution (dissolved in blank intestinal perfusion solution) was incubated in a water bath at 37 °C for 3 h. The concentrations at 0, 0.25, 0.5, 1, 2 and 3 h were determined and compared.
The blank intestinal perfusion solution was prepared by a process consistent with the in situ intestinal perfusion experiment (as follows) except for the vacancy of GP or other components in the K-R solution.

[3] = Stability in K-R solution; assay type: physicochemical; settings: 24 h, room temperature; for Stability, RSD (%): K-R solution, concentrations at 0-24 h compared
Description: GP and GPA were stable in K-R solution at room temperature for 24 h. The concentrations at 0, 1, 2, 3, 5, 6, 8, 10 and 24 h were determined and compared.
All the components were dissolved in the K-R solution to imitate the physiological conditions of the intestinal tract. K-R nutrient solution included: NaCl 7.8 g, KCl 0.35 g, CaCl2 0.37 g, NaHCO3 1.37 g, NaH2PO4 0.02 g, MgCl2 0.02 g, glucose 2.22 g. They were dissolved in distilled water to 1000 mL.

[4] = Effect of physical adsorption of the peristaltic pump; assay type: physicochemical; settings: for Physical Adsorption RSD (%): original vs 3 h concentration, 37 °C; for Concentration (mg/L) 3 h: perfusion solution after 3 h in water bath at 37 °C, compared with original concentration
Description: The perfusion solutions with known drug concentrations were incubated for 3 h in a water bath at 37 °C. The concentrations of GP and GPA in the resulting solution were determined and compared with the original concentrations.

[5] = system: β-D-glucosidase of a human intestinal anaerobe, Eubacterium sp.A-44; settings: cited from earlier work
[6] = cited from earlier work
[7] = system: β-D-glucosidase in rat liver homogenate; set-up: method as in PMID 7735197; settings: cited from earlier work
NO production = system: NO production; set-up: method as in PMID 22181069; settings: protection from renal injury; cited from earlier work
[8] = Compatibility group (mixed with FPE)
[9] = Single group, 80 mg/L perfusion solution

Row | Structure (SMILES) | Cumulative Absorption Rate (%) 1 h (mean ± SD) [1, 8] [%] | Cumulative Absorption Rate (%) 3 h (mean ± SD) [1, 8] [%] | Intestinal absorption at 216 mg/L ([1]; GPA 216 mg/L in intestinal perfusion solution) | Cumulative Absorption Rate (%) 1 h (mean ± SD) [1, 9] [%] | Cumulative Absorption Rate (%) 3 h (mean ± SD) [1, 9] [%] | Stability in blank intestinal perfusion solution [2] | Stability, RSD (%) [2] [%] | Stability, RSD (%) [3] [%] | Stability in K-R solution [3] | Physical Adsorption RSD (%) [4] [%] | Concentration (mg/L) 3 h [4] [mg/L] | Hydrolysis by β-D-glucosidase [5] | Absorption in the duodenum by concentration ([6]; GP at 78 mg/L compared with other concentrations) | Absorption in the duodenum versus other parts of the intestinal tract [6] | Hydrolysis by β-D-glucosidase [7] | Effect on NO production (NO production) | Hydrolysis by β-D-glucosidase ([5]; human intestinal anaerobe Eubacterium sp.A-44)
1 | O=C(O)C1=CO[C@@H](O[C@@H]2O[C@H](CO)[C@@H](O)[C@H](O)[C@H]2O)[C@@H]2C(CO)=CC[C@H]12 [GPA, geniposidic acid] | 0.075 ± 0.015 | 0.105 ± 0.028 | poor absorption | 0.063 ± 0.040 | 0.136 ± 0.046 | stable | 0.45 | 2.01 | stable | 1.32 | 114.68 | can hydolyse | – | – | – | – | –
2 | COC(=O)C1=CO[C@@H](O[C@@H]2O[C@H](CO)[C@@H](O)[C@H](O)[C@H]2O)[C@@H]2C(CO)=CC[C@H]12 [GP, Geniposide] | 0.139 ± 0.104 | 0.120 ± 0.063 | – | 0.059 ± 0.018 | 0.081 ± 0.017 | stable | 3.27 | 1.32 | stable | 0.57 | 92.34 | – | best absorption | better than other parts of the intestinal tract | cannot be hydrolyzed | inhibited NO production | can be hydrolyzed
